According to EP1285919A1, “C10 Carbonate substituted taxanes as antitumor agents” (Florida State University Research Foundation, Inc., priority 2001, dated 2003):

Experiments:
SK-MES carcinoma = tested on: SK-MES carcinoma
Description: (§1) In Vivo Evaluation of Antitumor Compounds Against Human Lung Carcinoma Xenografts
(§2) The compounds were prepared in the manner as described for Solution 2 of Example 10. Taxol (paclitaxel, Bristol Meyers Squibb), used as a control, was obtained as the marketed pharmaceutical drug.
(§3) Taxol itself was given as a split i.v. dose of 36 mg/kg, with the two 18 mg/kg doses separated by one hour. Vehicle control animals were dosed twice intravenously with half the total volume being given separated by one hour. The study was terminated on Day 60.
(§4) The results are summarized in Table 1 and include mean days of survival (MDS), number of toxic deaths, number of survivors, number of complete or partial responses, and number with stable disease. The mean days of survival is the number of days after which a SKMES neoplasm reached a size of 1.5 g and the animal was euthanized. A complete response is obtained if the tumor is not palpable at the end of the study. A partial response is obtained if the tumor shrinks to a size smaller than its size on Day 1 of the study.
(§5) A tumor scoring system was designed to provide a more quantitative ranking of efficacy (therapeutic potential) among the antitumor agents evaluated against the different human solid tumor xenografts. Each mouse in a study was given a score of from 1 to 10 at the end of the study. The scores can be summarized as follows:
(§6) The individual score for each mouse was averaged into a mean score for each treatment group. […]

[1] = tested on: NCI-H1299 (H1299) carcinoma
Description: as §1, §2, §3, §4, §5, §6
The treatment protocol for the H1299 test was identical to the SK-MES test protocol. […]

[2] = number of mice of six, i.v. split dose qd x 1, Taxol 36 mg/kg, 1755 49 mg/kg

For `CC(=O)O[C@H]1C(=O)[C@@]2(C)[C@H]([C@H](OC(=O)c3ccccc3)[C@]3(O)C[C@H](OC(=O)[C@H](O)[C@@H](NC(=O)c4ccccc4)c4ccccc4)C(C)=C1C3(C)C)[C@]1(OC(C)=O)CO[C@@H]1C[C@@H]2O` [Taxol], the “survival extension compared to vehicle controls” value (SK-MES carcinoma; Taxol 36 mg/kg i.v.) was 30%, the “MDS (n)” value (SK-MES carcinoma; mean days of survival until tumor 1.5 g, i.v. split dose qd x 1, Taxol 36 mg/kg, 1755 49 mg/kg, six mice per group) was 16 ± 2.0 (6) days and the “Toxic Deaths” value (SK-MES carcinoma; [2]) was 0. For the same compound, the Survivors (SK-MES carcinoma; number of mice of six, study ended Day 60) was 0, the “Stable Disease” value (SK-MES carcinoma; number of mice of six, tumor below 1.5 g at end of study) was 0 and the “Complete Response” value (SK-MES carcinoma; number of mice of six, tumor not palpable at end of study) was 0. For the same compound, the “Partial Response” value (SK-MES carcinoma; number of mice of six, tumor smaller than on Day 1) was 0, the “Mean Score” value (SK-MES carcinoma; tumor score 1 to 10 per mouse, averaged per group (10 = complete response)) was 1.3 ± 0.3 and the “survival extension compared to vehicle-treated animals” value ([1]; Taxol 36 mg/kg i.v., five animals) was 10%. For the same compound, the “MDS (n)” value ([1]; mean days of survival, i.v. split dose qd x 1, Taxol 36 mg/kg, 1755 49 mg/kg, six mice per group) was 27.0 ± 4.6 (5) days, the “Complete Response” value ([1]; number of mice of six) was 0 and the “Stable Disease” value ([1]; number of mice of six) was 0. For the same compound, the Survivors ([1]; number of mice of six) was 1, the “Toxic Deaths” value [1, 2] was 0 and the “Mean Score” value ([1]; tumor score 1 to 10 per mouse, averaged per group) was 2.7 ± 1.3.
